Values of other authors in patent US10683273B2, “Compounds as DNA probes, methods and applications thereof” (JAWAHARLAL NEHRU CENTRE FOR ADVANCED SCIENTIFIC RESEARCH, priority 2015, dated 2020).

Tests used:
DNA = conditions: literature values (footnotes a, b); cited from earlier work
[1] = literature values (footnotes a, b); cited from earlier work

Row | Structure (SMILES) | Stokes shift in presence of DNA (DNA) | Stokes shift in absence of DNA [1]
1 | CN1C(=Cc2cc[n+](C)c3ccccc23)Oc2ccccc21 [Oxazole yellow (YO), Oxazole yellow] | 19 nm | 100 nm
2 | CN(C)CCCN(CCCN(C)C)c1cc(C=C2Sc3ccccc3N2C)c2ccccc2[n+]1-c1ccccc1 [Picogreen] | 21 nm | 30 nm
3 | CCCN(CCCN(C)C)c1cc(/C=C2/Sc3ccccc3N2C)c2ccccc2[n+]1-c1ccccc1 [SYBR Green 1] | 26 nm | 36 nm
4 | CN1/C(=C/c2cc[n+](CCC[N+](C)(C)CCC[N+](C)(C)CCC[n+]3ccc(/C=C4\Sc5ccccc5N4C)c4ccccc43)c3ccccc23)Sc2ccccc21.[I-].[I-].[I-].[I-] [TOTO-1] | 19 nm | 149 nm
5 | CN1C(=Cc2cc[n+](C)c3ccccc23)Sc2ccccc21 [Thiazole orange (TO), Thiazole orange] | 18 nm | 139 nm
6 | CN1/C(=C/c2cc[n+](CCC[N+](C)(C)CCC[N+](C)(C)CCC[n+]3ccc(/C=C4/Oc5ccccc5N4C)c4ccccc43)c3ccccc23)Oc2ccccc21.[I-].[I-].[I-].[I-] [YOYO-1] | 20 nm | 106 nm
